Laboratory results taken from patent US5173494A, “Specific inhibition of angiotensin-II binding to angiotensin-II receptor subtype-2” (E. I. du Pont de Nemours and Company, priority 1991, dated 1992).

Legend:
[1] = test system: memory of previously learned tasks; details: in vivo; cited from earlier work
[2] = test system: renin-induced disruption of passive avoidance retention; assay: Renin-disrupted passive avoidance retention; format: in vivo, male Sprague-Dawley rats; details: rats; for prevention of renin-induced amnesia: co-administered with renin, IVT
Method: Experimentally naive male Sprague-Dawley rats […] (Charles River Breeding Laboratories, Kingston, N.Y.), weighing between 175 to 200 gm were used. The animals were housed four per cage (45.0 L×20.0 H×26.0 W cm) with free access to food and water. They were maintained on a 12 h light/dark cycle (lights on 0600 h) and at a room temperature of 22±1° C. with relative humidity of 50±10%.
The experimental sessions were conducted in a two-compartment passive avoidance box. One compartment, made of clear plastic with a perforated clear plastic floor, measured 21(L)×24.5(H)×17(W) cm and was illuminated with a 60 watt incandescent light bulb placed 36 cm above the floor. The other compartment, made of black plastic, measured 30.5(L)×20.3(H)×[…] with a floor made of 4 mm stainless steel rods spaced 1.2 cm apart. A grid floor shocker (Coulbourn Instruments) was connected to the steel rods and provided scrambled footshock. The two compartments were separated by a solenoid-operated slide door (Lafayette Instrument Co., Lafayette, Ind.). An electronic counter (Coulbourn Instruments), triggered by the opening or closing of the slide door, recorded acquisition and retention latencies (latencies were defined as the time it took an animal to enter the dark compartment).
Passive avoidance training began by placing the rat into the clear compartment of the two-compartment passive avoidance box. Following a 10 sec delay, the slide door to the dark compartment was raised. Once the rat moved completely into the dark compartment (all four paws on the shock grid floor) the slide door was lowered, and after a 10 sec delay, a 1.0 mA shock was applied to the grid floor for three sec. A second three sec shock was delivered after an additional 10 sec delay. The rats were immediately removed from the dark compartment and returned to their home cage. A retention test was given 24 h later. It proceeded in the same manner as the training session except that no shock was applied to the grid floor when the rats were provided access to the dark compartment for a maximum of 300 sec.
All drugs were administered IVT 60 minutes prior to acquisition training in a volume of 5 μl. Doses are expressed as the free base weight of each compound.

[3] = test system: mouse habituation (light to dark compartment latency); details: cited from earlier work
[4] = test system: renin-induced avoidance disruption; details: cited from earlier work
[5] = test system: renin-induced amnesia in a PA task; assay: PA task after IVT renin (own laboratory); format: in vivo
[6] = test system: light/dark habituation performance; details: subchronic treatment; cited from earlier work
uphill avoidance = details: mice, acute, 30 mg/kg PO; cited from earlier work
[7] = test system: scopolamine-induced PA amnesia; details: three times per day at 1, 3 and 10 mg/kg PO; cited from earlier work
[8] = test system: ACh in the striatum and hypothalamus; details: acute or repeated administration; cited from earlier work
[9] = test system: scopolamine-induced impairment of eight arm radial maze performance; details: 3 mg/kg IP; cited from earlier work
[10] = test system: retention of a passive avoidance (PA) response; details: rats, dorsal neostriatum injection; cited from earlier work
[11] = test system: potassium-stimulated release of ACh in entorhinal cortex; details: in vitro, entorhinal cortex from rat brain; cited from earlier work
[12] = test system: AII in cerebrospinal fluid (CSF); details: renin IVT; increased from 40; cited from earlier work

NCCCC[C@H](OP(=O)(O)CCCCc1ccccc1)C(=O)N1CCC[C@H]1C(=O)O [SQ 29852]
effect on anticholinergic effect on performance [1]: ameliorate, at least in part, an anticholinergic effect on performance
effect on memory of previously learned tasks [1]: protective effects on memory of previously learned tasks

CCCc1nc(C(F)(F)F)c(CO)n1Cc1ccc(-c2ccccc2-c2nnn[nH]2)cc1 [Compound D, 2-n-propyl-5-hydroxymethyl-1-[(2'-(1H-tetrazol-5-yl)biphenyl-4-yl)methyl]-4-trifluoromethylimidazole]
prevention of renin-induced amnesia [2]: protected against amnesia

CN1[C@@H]2C[C@@H](OC(=O)[C@H](CO)c3ccccc3)C[C@H]1[C@@H]1O[C@@H]12 [scopolamine]
performance following scopolamine in vehicle-treated mice (initial latency) ([3]; scopolamine 0.25 mg kg^-1 i.p., day 6): increase in the initial latency

C[C@H](CS)C(=O)N1CCC[C@H]1C(=O)O [captopril]
prevention of renin-induced avoidance disruption ([4]; IVT, prior to the renin injection): prevented the renin-induced avoidance disruption
prevention of renin-induced amnesia in a PA task ([5]; IVT administration): prevented
rate of acquisition of light/dark habituation performance [6]: increased the rate of acquisition

CCOC(=O)C(CCc1ccccc1)NC(C)C(=O)N1CC2(CC3CCC2CC3)CC1C(=O)O (stereo not shown) [Hoe 288]
performance during retention testing, uphill avoidance (uphill avoidance): improved performance during retention testing
effect on scopolamine-induced PA amnesia [7]: partially reversed the amnesia
ACh in the striatum and hypothalamus [8]: significant decrease in ACh
effect of muscarinic receptor blockade on performance [9]: partially antagonized the effects of muscarinic receptor blockade on performance

NC(=O)[C@@H]1CCCN1C(=O)[C@H](Cc1cnc[nH]1)NC(=O)[C@@H]1CCC(=O)N1 [thyrotropin releasing hormone]
effect on retention of a PA response [10]: had no effect

[1-sarcosine, 8-threonine]angiotensin-II
antagonism of AII effect on ACh release [11]: antagonized

AII: Angiotensin-II (AII), a circulating hormone, now thought to act as a neuropeptide in the central nervous system (DRVYIHPF; Angiotensin-2; UniProt P01019 25-32, looked up)
effect on retention of a PA response [10]: disruption in retention of a PA response
basal levels of ACh release [11]: without effects on basal levels
potassium-stimulated release of ACh [11]: reduced potassium-stimulated release of ACh

lysine-8-vasopressin
effect on retention of a PA response [10]: had no effect

CCCc1nc(C(F)(F)F)c(C(=O)O)n1Cc1ccc(-c2ccccc2-c2nn[nH]n2)cc1 [Compound C, 2-n-propyl-1-[(2'-(lH-tetrazol-5-yl)biphenyl-4-yl)methyl]-4-trifluoromethylimidazole-5-carboxylic acid]
prevention of renin-induced amnesia [2]: protected against amnesia

Cc1cc(Cn2cnc3c2CC(C(=O)O)N(C(=O)C(c2ccccc2)c2ccccc2)C3)ccc1N (stereo not shown) [EXP655, 1-(4-amino-3-methylphenyl)methyl-5-diphenylacetyl-4,5,6,7-tetrahydro-1H-imidazo[4,5-c]pyridine-6-carboxylic acid]
initial latency to move from light to dark compartment ([3]; 10.0 ng kg^-1 i.p. b.d., days 2 and 3, vs vehicle): decrease in the initial latency to move from the light to dark compartment
scopolamine-induced impairment in mice treated with EXP655 ([3]; EXP655 10.0 ng kg^-1 i.p., scopolamine 0.25 mg kg^-1 i.p., day 6): not detected
prevention of renin-induced amnesia [2]: less effective in preventing the amnesia

B1: renin: Renin (Sigma Chemicals), a stimulator of endogenous AII biosynthesis (protein, UniProt P00797 67-406, looked up)
Renin: LTLGNTTSSVILTNYMDTQYYGEIGIGTPPQTFKVVFDTGSSNVWVPSSKCSRLYTACVYHKLFDASDSSSYKHNGTELTLRYSTGTVSGFLSQDIITVGGITVTQMFGEVTEMPALPFMLAEFDGVVGMGFIEQAIGRVTPIFDNIISQGVLKEDVFSFYYNRDSENSQSLGGQIVLGGSDPQHYEGNFHYINLIKTGVWQIQMKGVSVGSSTLLCEDGCLALVDTGASYISGSTSSIEKLMEALGAKKRLFDYVVKCNEGPTLPDISFHLGGKEYTLTSADYVFQESYSSKKLCTLAIHAMDIPPPTGPTWALGATFIRKFYTEFDRRNNRIGFALAR
AII in cerebrospinal fluid after renin [12]: about 5000 fmol per mL
effect on avoidance learning ([4]; renin into lateral ventricle (IVT)): disruption of avoidance learning
amnesia in a PA task ([5]; renin administered IVT): produces a dose-related amnesia
memory deficit produced by renin ([2]; renin injected IVT): produces memory deficit in rats
